The conditions of data set [1]: cited from earlier work.
A short description of data set [2]: Physical storage stability of aqueous Ifosfamide concentrates with Mesna as solubility-enhancing agent. It counts as physicochemical. The conditions noted are these: Mesna as solubility-enhancing agent in Ifosfamide concentrates. As for the experimental part: The ratios refer to the proportions by weight of the substances in the solution. The solutions are homogenized, sterilized by filtration and filled under aseptic conditions. Production is carried out under nitrogen. These solutions can also be lyophilized in order to obtain a longer storage life of the pharmaceutical preparation. In addition to the auxiliary agents that are set forth in the examples, the solution can contain also further substances, e.g. sodium chloride, Mannitol, lactose, polyethylenglycol, ethanol, glucose, disaccharide, cyclodextrine.
In the manufacture, 90% of the Water for Injection is cooled to about 5° C. to 10° C., to which is dissolved the phosphate buffer; the Mesna is subsequently added and is homogeneously dissolved. […] The solution so obtained is brought to the specified weight with the cooled Water for Injection, sterile-filtered and filled in injection vials under aseptic conditions. Sterilization and filling are not carried out under cooling.
The making of Examples 4, 5 and 6 is carried out analogously to the description of Example 1.

The structures appear in SMILES notation.

For `O=P1(NCCCl)OCCCN1CCCl` (stereo not drawn) [Ifosfamide, 2-(chlorethylamino)-3-(2-chlorethyl)-tetrahydro-2H-1,3,2-oxazaphosphorin-2-oxide], in data set [1] (water, room temperature), the “solubility in water (saturation concentration)” value is given as “about 140 mg/mL”. The “solubility of Ifosfamide lowered by addition of auxiliary agents” value in data set [1] (with auxiliary agents added) is listed as “under 10 % (wt/vol)”.

For the compound `O=S(=O)(O)CCS` [Mesna, mercaptoethane sulfonate-sodium], the “physical stabilization of Ifosfamide solution” value in data set [2] is on record as “prevents crystallization”.

Values taken from patent publication US20050124589A1, “New use, pharmaceutical preparations as well as a process for their production” (priority 2003, published 2005).
